These are literature values, as cited in patent US20040248901A1, “Compositions containing itraconazole and their preparation methods” (priority 2001, published 2004).

For the data set the following is noted: background art.

For `CCC(C)n1ncn(-c2ccc(N3CCN(c4ccc(OCC5COC(Cn6cncn6)(c6ccc(Cl)cc6Cl)O5)cc4)CC3)cc2)c1=O` (mixture of isomers) [itraconazole, (±)-cis-4-[4-[4-[4-[[2-(2,4-dichlorophenyl)-2-(1H-1,2,4-triazol-1-ylmethyloxolan-4-yl]methoxy]phenyl]-1-piperazinyl]phenyl]-2,4-dihydro-2-(1-methylpropyl)-3H-1,2,4-triazol-3-one], the solubility in water is at most 1 µg/mL.
